Laboratory results: the CheMixHub viscosity set
“And” between values parts separate entries of the source, which are not always exact repeats. Equal entries are not always repeated.

Experiment: xn = mol fraction of the nth substance listed

NCCO + O
Conditions | viscosity
293.15 K, 100 kPa, x2 = 0.46 | 21.2 mPa·s
293.15 K, 101 kPa, x1 = 0.03289 | 1.389 mPa·s
293.15 K, 101 kPa, x1 = 0.06899 | 1.903 mPa·s
293.15 K, 101 kPa, x1 = 0.069 | 1.88 mPa·s
293.15 K, 101 kPa, x1 = 0.0699 | 1.953 mPa·s
293.15 K, 101 kPa, x1 = 0.1124 | 3.125 mPa·s
293.15 K, 101 kPa, x1 = 0.1654 | 4.243 mPa·s
293.15 K, 101 kPa, x1 = 0.23 | 6.17 mPa·s
293.15 K, 101 kPa, x1 = 0.3043 | 9.893 mPa·s
293.15 K, 101 kPa, x1 = 0.47 | 16.6 mPa·s
293.15 K, 101 kPa, x1 = 0.6204 | 23.11 mPa·s
293.15 K, 101 kPa, x1 = 0.803 | 25.85 mPa·s
293.15 K, 101 kPa, x2 = 0.84 | 4.64 mPa·s
293.15 K, 101 kPa, x2 = 0.93 | 2.002 mPa·s
293.15 K, 101.3 kPa, x1 = 0.07 | 2.005 mPa·s
293.15 K, 101.3 kPa, x1 = 0.2 | 4.667 mPa·s and 7.345 mPa·s
293.15 K, 101.3 kPa, x1 = 0.3 | 11.29 mPa·s
293.15 K, 101.3 kPa, x1 = 0.4 | 15.77 mPa·s
293.15 K, 101.3 kPa, x1 = 0.5 | 21 mPa·s
293.15 K, 101.3 kPa, x1 = 0.7 | 24.02 mPa·s
298.14 K, 100 kPa, x1 = 0.112 | 2.464 mPa·s
298.15 K, 100 kPa, x1 = 0.069 | 1.621 mPa·s
298.15 K, 100 kPa, x1 = 0.11 | 2.415 mPa·s
298.15 K, 100 kPa, x1 = 0.112 | 2.467 mPa·s and 2.464 mPa·s
298.15 K, 101 kPa, x1 = 0.03289 | 1.224 mPa·s
298.15 K, 101 kPa, x1 = 0.06899 | 1.689 mPa·s
298.15 K, 101 kPa, x1 = 0.1121 | 2.44 mPa·s
298.15 K, 101 kPa, x1 = 0.1122 | 2.54 mPa·s
298.15 K, 101 kPa, x1 = 0.1124 | 2.714 mPa·s
298.15 K, 101 kPa, x1 = 0.1422 | 3.11 mPa·s
298.15 K, 101 kPa, x2 = 0.84 | 3.41 mPa·s and 3.76 mPa·s
298.15 K, 101 kPa, x2 = 0.8878 | 2.52 mPa·s
298.15 K, 101 kPa, x2 = 0.89 | 2.46 mPa·s
298.15 K, 101.3 kPa, x1 = 0.03 | 1.299 mPa·s
298.15 K, 101.3 kPa, x1 = 0.1 | 2.489 mPa·s
298.15 K, 101.3 kPa, x1 = 0.2 | 3.765 mPa·s and 5.547 mPa·s
298.15 K, 101.3 kPa, x1 = 0.3 | 9.062 mPa·s
298.15 K, 101.3 kPa, x1 = 0.4 | 12.6 mPa·s
298.15 K, 101.3 kPa, x1 = 0.5 | 16.29 mPa·s
298.15 K, 101.3 kPa, x1 = 0.7 | 19.9 mPa·s
303.15 K, 100 kPa, x1 = 0.1 | 1.91 mPa·s
303.15 K, 100 kPa, x1 = 0.2 | 3.87 mPa·s
303.15 K, 100 kPa, x1 = 0.3 | 6.67 mPa·s
303.15 K, 100 kPa, x1 = 0.4 | 9.68 mPa·s
303.15 K, 100 kPa, x1 = 0.5 | 12.3 mPa·s
303.15 K, 100 kPa, x1 = 0.6 | 14 mPa·s
303.15 K, 100 kPa, x2 = 0.46 | 13.1 mPa·s
303.15 K, 101 kPa, x1 = 0.03289 | 1.087 mPa·s
303.15 K, 101 kPa, x1 = 0.06899 | 1.482 mPa·s
303.15 K, 101 kPa, x1 = 0.0699 | 1.477 mPa·s and 1.177 mPa·s
303.15 K, 101 kPa, x1 = 0.1122 | 2.19 mPa·s
303.15 K, 101 kPa, x1 = 0.1124 | 2.397 mPa·s
303.15 K, 101 kPa, x1 = 0.1422 | 2.65 mPa·s
303.15 K, 101 kPa, x1 = 0.1654 | 3.059 mPa·s
303.15 K, 101 kPa, x1 = 0.3043 | 6.608 mPa·s
303.15 K, 101 kPa, x1 = 0.6204 | 13.65 mPa·s
303.15 K, 101 kPa, x1 = 0.803 | 15.72 mPa·s
303.15 K, 101 kPa, x2 = 0.84 | 3.27 mPa·s
303.15 K, 101 kPa, x2 = 0.93 | 1.496 mPa·s
303.15 K, 101.3 kPa, x1 = 0.03 | 1.121 mPa·s
303.15 K, 101.3 kPa, x1 = 0.07 | 1.501 mPa·s
303.15 K, 101.3 kPa, x1 = 0.1 | 2.195 mPa·s
303.15 K, 101.3 kPa, x1 = 0.2 | 3.279 mPa·s and 4.96 mPa·s
303.15 K, 101.3 kPa, x1 = 0.3 | 7.417 mPa·s
303.15 K, 101.3 kPa, x1 = 0.4 | 10.31 mPa·s
303.15 K, 101.3 kPa, x1 = 0.5 | 13.15 mPa·s
308.15 K, 101 kPa, x1 = 0.03289 | 0.973 mPa·s
308.15 K, 101 kPa, x1 = 0.06899 | 1.31 mPa·s
308.15 K, 101 kPa, x1 = 0.1124 | 2.143 mPa·s
313 K, 101 kPa, x1 = 0.11 | 1.57 mPa·s
313.15 K, 100 kPa, x1 = 0.1 | 1.48 mPa·s
313.15 K, 100 kPa, x2 = 0.46 | 8.59 mPa·s
313.15 K, 101 kPa, x1 = 0.03289 | 0.878 mPa·s
313.15 K, 101 kPa, x1 = 0.11 | 1.66 mPa·s
313.15 K, 101 kPa, x1 = 0.1124 | 1.95 mPa·s
313.15 K, 101 kPa, x1 = 0.1422 | 1.99 mPa·s
313.15 K, 101 kPa, x1 = 0.3043 | 4.654 mPa·s
313.15 K, 101 kPa, x1 = 0.803 | 10.54 mPa·s
313.15 K, 101 kPa, x2 = 0.84 | 2.3 mPa·s
313.15 K, 101 kPa, x2 = 0.93 | 1.163 mPa·s
313.15 K, 101.3 kPa, x1 = 0.03 | 0.909 mPa·s
313.15 K, 101.3 kPa, x1 = 0.2 | 3.423 mPa·s
313.15 K, 101.3 kPa, x1 = 0.3 | 5.291 mPa·s
313.15 K, 101.3 kPa, x1 = 0.4 | 7.024 mPa·s
313.15 K, 101.3 kPa, x1 = 0.5 | 8.95 mPa·s
318.15 K, 101 kPa, x1 = 0.03289 | 0.798 mPa·s
318.15 K, 101 kPa, x1 = 0.06899 | 1.048 mPa·s
323 K, 101 kPa, x1 = 0.11 | 1.22 mPa·s
323.15 K, 100 kPa, x2 = 0.46 | 5.92 mPa·s
323.15 K, 101 kPa, x1 = 0.03289 | 0.731 mPa·s
323.15 K, 101 kPa, x1 = 0.06899 | 0.948 mPa·s
323.15 K, 101 kPa, x1 = 0.069 | 0.94 mPa·s
323.15 K, 101 kPa, x1 = 0.0699 | 0.973 mPa·s
323.15 K, 101 kPa, x1 = 0.1654 | 1.76 mPa·s
323.15 K, 101 kPa, x1 = 0.23 | 2.57 mPa·s
323.15 K, 101 kPa, x1 = 0.3043 | 3.401 mPa·s
323.15 K, 101 kPa, x1 = 0.47 | 5.37 mPa·s
323.15 K, 101 kPa, x1 = 0.6204 | 6.592 mPa·s
323.15 K, 101 kPa, x1 = 0.803 | 7.219 mPa·s
323.15 K, 101 kPa, x2 = 0.84 | 1.78 mPa·s
323.15 K, 101 kPa, x2 = 0.89 | 1.23 mPa·s
323.15 K, 101 kPa, x2 = 0.93 | 0.942 mPa·s
323.15 K, 101.3 kPa, x1 = 0.03 | 0.715 mPa·s
323.15 K, 101.3 kPa, x1 = 0.07 | 0.945 mPa·s
323.15 K, 101.3 kPa, x1 = 0.1 | 1.338 mPa·s
323.15 K, 101.3 kPa, x1 = 0.2 | 1.782 mPa·s and 2.566 mPa·s
323.15 K, 101.3 kPa, x1 = 0.3 | 3.771 mPa·s
323.15 K, 101.3 kPa, x1 = 0.4 | 5.055 mPa·s
323.15 K, 101.3 kPa, x1 = 0.5 | 6.273 mPa·s
323.15 K, 101.3 kPa, x1 = 0.7 | 7.09 mPa·s
